The subject of assay [1] is Hedgehog signaling pathway Gli Reporter-NIH3T3 cells. In words: Gli luciferase reporter assay, Hedgehog signalling pathway activity. In kind it is cell-based. The settings on record: mShh 1 μg/ml, 27 hours. As for the experimental part: Hedgehog signaling pathway Gli Reporter-NIH3T3 cells were cultured in DMEM medium with 10% Calf serum, 1% Penn-strep, 500 μg/ml of Geneticin.
To perform the Gli luciferase reporter assay, Gli Reporter—NIH3T3 cells were seeded at 25,000 cells per well into white clear-bottom 96-well microplate in 100 μl of growth medium. Cells were incubated at 37° C., and 5% CO2 for overnight. The next day, remove the medium from wells and add 45 μl of diluted inhibitor in assay medium (Opti-MEM Reduced Serum Medium+0.5% calf serum+1% non-essential amino acids+1 mM Na-pyruvate+10 mM HEPES+1% Pen/Strep) per well. Incubate cells at 37° C. in a CO2 incubator for 2 hours. Then add 5 μl of diluted mShh in assay medium to wells (final [mShh]=1 μg/ml). Add 50 μl of assay medium to cell-free control wells. Cells were treated for 27 hours. After treatment, cells were lysed and luciferase assay was performed using ONE-Step luciferase assay system: add 50 μl of One-Step Luciferase reagent per well and rock at room temperature for ˜30 minutes. Luminescence was measured using a luminometer (BioTek Synergy™ 2 microplate reader). Compounds of the present invention are active in blockade of hedgehog signalling.
On the technique in general: A reporter such as luciferase makes a cellular process visible.

The subject of assay [2] is C. albicans (ATCC 90028). In words: Minimum inhibitory concentration, in vitro broth microdilution assay (CLSI M27-A2). The assay is classed as cell-based, Candida albicans. To be noted: ATCC 90028, about 50% growth reduction, 2 days at 36° C., range tested 8-0.0078 μg/mL, values given as ranges; for MIC: Candida albicans, ATCC90028, 48 h, read-out: Candida albicans MIC. An outline of the steps: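 Inoculum of 1×10^3 to 1×10^4 CFU/mL in RPMI-1640+MOPS, exposed to 11 two-fold serial compound concentrations at 2 percent final DMSO, per CLSI M27-A2. After 2 days at 36° C, wells scored visually for growth to give MIC; tested in duplicate.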

Assay [3] deals with A. fumigatus. The assay can be described thus: A. fumigatus MIC at 100% growth inhibition (CLSI M38-A2). The assay is classed as cell-based, Aspergillus fumigatus. The settings on record: 100% growth inhibition, range tested 8-0.0078 μg/mL, values given as ranges; for MIC: Aspergillus fumigatus, read-out: Aspergillus fumigatus MIC. The procedure: A. fumigatus MICs were determined at 100% growth inhibition following CLSI guidelines at a concentration range of 8-0.0078 μg/mL (CLSI M38-A2).

pIC50: −log10 of the molar value. Converted amounts (≈) assume the structure as drawn.

The text below walks through data of patent US10464922B2, “Metalloenzyme inhibitor compounds” (NQP 1598 LTD., priority 2015, dated 2019).

One may read the pIC50 as −log10 of the IC50, conventionally taken in molar units. The MIC is the least concentration at which growth counts as inhibited.

Regarding `CC[C@@H]([C@H](C)O)n1ncn(-c2ccc(N3CCN(c4ccc(-c5ccc(C(F)(F)C(O)(Cn6cnnn6)c6ccccc6F)nc5)cc4)CC3)cc2)c1=O` (mixture of isomers) [Example 38], the pIC50 in assay [1] was 7.42.
In the case of `CC[C@@H]([C@H](C)O)n1ncn(-c2ccc(N3CCN(c4ccc(-c5ccc(C(F)(F)C(O)(Cn6cnnn6)c6cccc(Cl)c6)nc5)cc4)CC3)cc2)c1=O` (mixture of isomers) [Example 127, 4-(4-(4-(4-(6-(2-(3-chlorophenyl)-1,1-difluoro-2-hydroxy-3-(1H-tetrazol-1-yl)propyl)pyridin-3-yl)phenyl)piperazin-1-yl)phenyl)-2-((2S,3S)-2-hydroxypentan-3-yl)-2,4-dihydro-3H-1,2,4-triazol-3-one], the MIC in assay [2] is 0.1 to 1 µg/mL; in assay [3], over 8 µg/mL. In addition, in assay [1], the pIC50 was 7.70.
Consider `CC[C@@H]([C@H](C)O)n1ncn(-c2ccc(N3CCN(c4ccc(-c5ccc(C(F)(F)C(O)(Cn6cnnn6)c6ccc(F)cc6)nc5)cc4)CC3)cc2)c1=O` (single isomer, unassigned; (+)) [63(+)], for which the MIC in assay [2] was 0.01 to 0.1 µg/mL (≈ 0.0135 to 0.135 µM); in assay [3] it was 0.062 to 0.25 µg/mL (≈ 0.0837 to 0.337 µM). The negative-log IC50 (pIC50) in assay [1] is 6.82.
For `CC[C@@H]([C@H](C)O)n1ncn(-c2ccc(N3CCN(c4ccc(-c5ccc(C(F)(F)C(O)(Cn6cnnn6)c6cccc(F)c6)nc5)cc4)CC3)cc2)c1=O` (single isomer, unassigned; (+)) [64(+)] the same measures were 0.01 to 0.1 µg/mL (≈ 0.0135 to 0.135 µM), 0.25 to 1 µg/mL (≈ 0.337 to 1.35 µM) and 6.80.
The corresponding values for `CC[C@@H]([C@H](C)O)n1ncn(-c2ccc(N3CCN(c4ccc(-c5ccc(C(F)(F)C(O)(Cn6ncnc6C)c6cccc(F)c6)nc5)cc4)CC3)cc2)c1=O` (single isomer, unassigned; (+)) [85(+)] are 0.1 to 1 µg/mL (≈ 0.133 to 1.33 µM), over 8 µg/mL and 6.60.
On to `CC[C@@H]([C@H](C)O)n1ncn(-c2ccc(N3CCN(c4ccc(-c5ccc(C(F)(F)C(O)(Cn6cnnn6)c6ccccc6F)nc5)cc4)CC3)cc2)c1=O` (stereo partly drawn) [38(+)], for which, in assay [2], the “Candida albicans MIC” value is at most 0.0078 to 0.010 µg/mL. In addition, the “Aspergillus fumigatus MIC” value in assay [3] was 0.062 to 0.25 µg/mL. Moreover, the pIC50 in assay [1] is 6.92.
The corresponding values for `CC[C@@H]([C@H](C)O)n1ncn(-c2ccc(N3CCN(c4ccc(-c5ccc(C(F)(F)C(O)(Cn6cnnn6)c6ccccc6F)nc5)cc4)CC3)cc2)c1=O` (stereo partly drawn) [38(−)] are 0.10 to 1.0 µg/mL, over 8 µg/mL and 7.23.
Regarding `CC[C@@H]([C@H](C)O)n1ncn(-c2ccc(N3CCN(c4ccc(-c5ccc(C(F)(F)C(O)(Cn6cnc(C(F)(F)F)n6)c6ccccc6F)nc5)cc4)CC3)cc2)c1=O` (stereo partly drawn) [106(+)], the MIC in assay [2] and in assay [3] was over 8 µg/mL throughout. In assay [1], the pIC50 is 6.51.
In the case of `N#Cc1ccc(N2CCN(c3ccc(-c4ccc(C(F)(F)[C@](O)(Cn5cnnn5)c5ccc(F)cc5F)nc4)cc3)CC2)nc1` [Example 12], the values for the MIC in assay [2] and in assay [3] were 0.0078 to 0.01 µg/mL (≈ 0.0127 to 0.0162 µM) and 0.25 to 1 µg/mL (≈ 0.406 to 1.62 µM), respectively. In addition, the pIC50 in assay [1] was 6.40.
The corresponding values for `CC[C@@H]([C@H](C)O)n1ncn(-c2ccc(N3CCN(c4ccc(-c5ccc(C(F)(F)[C@](O)(Cn6cnnn6)c6ccc(F)cc6F)nc5)cc4)CC3)cc2)c1=O` [Example 20, 4-(4-(4-(4-(6-((R)-2-(2,4-difluorophenyl)-1,1-difluoro-2-hydroxy-3-(1H-tetrazol-1-yl)propyl)pyridin-3-yl)phenyl)piperazin-1-yl)phenyl)-2-((2S,3S)-2-hydroxypentan-3-yl)-2,4-dihydro-3H-1,2,4-triazol-3-one] are 0.0078 to 0.01 µg/mL (≈ 0.0103 to 0.0132 µM), 1 to 4 µg/mL (≈ 1.32 to 5.27 µM) and 6.72.
As to `N#Cc1ccc(CN2CCN(c3ccc(-c4ccc(C(F)(F)[C@](O)(Cn5cnnn5)c5ccc(F)cc5F)nc4)cc3)CC2=O)cc1` [Example 28, (R)-4-((4-(4-(6-(2-(2,4-difluorophenyl)-1,1-difluoro-2-hydroxy-3-(1H-tetrazol-1-yl)propyl)pyridin-3-yl)phenyl)-2-oxopiperazin-1-yl)methyl)benzonitrile], the MIC in assay [2] was 0.0078 to 0.01 µg/mL (≈ 0.0121 to 0.0156 µM); in assay [3], over 8 µg/mL. The pIC50 in assay [1] was 6.24.
Turning to `N#Cc1ccc(N2CCN(c3ccc(-c4ccc(C(F)(F)C(O)(Cn5cnnn5)C5CC5)nc4)cc3)CC2)cc1` (stereo not drawn) [Example 36, 4-(4-(4-(6-(2-cyclopropyl-1,1-difluoro-2-hydroxy-3-(1H-tetrazol-1-yl)propyl)pyridin-3-yl)phenyl)piperazin-1-yl) benzonitrile], the results for the MIC in assay [2] and in assay [3] were 0.0078 to 0.01 µg/mL (≈ 0.0144 to 0.0184 µM) and over 8 µg/mL, respectively. The negative-log IC50 (pIC50) in assay [1] is 6.07.
For `CC[C@@H]([C@H](C)O)n1ncn(-c2ccc(N3CCN(c4ccc(-c5ccc(C(F)(F)C(O)(Cn6cccn6)c6ccc(F)cc6F)nc5)cc4)CC3)cc2)c1=O` (stereo partly drawn) [Example 101, 4-(4-(4-(4-(6-(2-(2,4-difluorophenyl)-1,1-difluoro-2-hydroxy-3-(1H-pyrazol-1-yl)propyl)pyridin-3-yl)phenyl)piperazin-1-yl)phenyl)-2-((2S,3S)-2-hydroxypentan-3-yl)-2,4-dihydro-3H-1,2,4-triazol-3-one] the same measures were 0.1 to 1 µg/mL (≈ 0.132 to 1.32 µM), over 8 µg/mL and 6.66.
For `CC[C@@H]([C@H](C)O)n1ncn(-c2ccc(N3CCN(c4ccc(-c5ccc(C(F)(F)C(O)(Cn6nccn6)c6ccc(F)cc6F)nc5)cc4)CC3)cc2)c1=O` (stereo partly drawn) [Example 107, 4-(4-(4-(4-(6-(2-(2,4-difluorophenyl)-1,1-difluoro-2-hydroxy-3-(2H-1,2,3-triazol-2-yl)propyl)pyridin-3-yl)phenyl)piperazin-1-yl)phenyl)-2-((2S,3S)-2-hydroxypentan-3-yl)-2,4-dihydro-3H-1,2,4-triazol-3-one] the same measures were over 8 µg/mL, over 8 µg/mL and 6.57.
`CC[C@@H]([C@H](C)O)n1ncn(-c2ccc(N3CCN(c4ccc(-c5ccc(C(F)(F)C(O)(Cc6nnn[nH]6)c6ccccc6F)nc5)cc4)CC3)cc2)c1=O` (stereo partly drawn) [Example 115, 4-(4-(4-(4-(6-(1,1-difluoro-2-(2-fluorophenyl)-2-hydroxy-3-(1H-tetrazol-5-yl)propyl)pyridin-3-yl)phenyl)piperazin-1-yl)phenyl)-2-((2S,3S)-2-hydroxypentan-3-yl)-2,4-dihydro-3H-1,2,4-triazol-3-one]: the MIC in assay [2] and in assay [3] was over 8 µg/mL each time. The pIC50 in assay [1] was 6.29.
With `CC[C@@H]([C@H](C)O)n1ncn(-c2ccc(N3CCN(c4ccc(-c5ccc(C(F)(F)C(O)(Cn6nccn6)c6ccccc6F)nc5)cc4)CC3)cc2)c1=O` (stereo partly drawn) [Example 116, 4-(4-(4-(4-(6-(1,1-difluoro-2-(2-fluorophenyl)-2-hydroxy-3-(2H-1,2,3-triazol-2-yl)propyl)pyridin-3-yl)phenyl)piperazin-1-yl)phenyl)-2-((2S,3S)-2-hydroxypentan-3-yl)-2,4-dihydro-3H-1,2,4-triazol-3-one], the MIC in assay [2] and in assay [3] was over 8 µg/mL throughout. Further, in assay [1], the pIC50 was 6.80.
`CC[C@@H]([C@H](C)O)n1ncn(-c2ccc(N3CCN(c4ccc(-c5ccc(C(F)(F)C(O)(Cn6cccn6)c6ccccc6F)nc5)cc4)CC3)cc2)c1=O` (stereo partly drawn) [Example 117]: the minimum inhibitory concentration (MIC) in assay [2] and in assay [3] was over 8 µg/mL each time. Also, the pIC50 in assay [1] was 7.04.
Take `CC[C@@H]([C@H](C)O)n1ncn(-c2ccc(N3CCN(c4ccc(-c5ccc(C(F)(F)[C@](O)(Cn6cnnn6)c6ccc(F)cc6F)nc5)cc4)CC3)cn2)c1=O` [Example 124, 4-(5-(4-(4-(6-((R)-2-(2,4-difluorophenyl)-1,1-difluoro-2-hydroxy-3-(1H-tetrazol-1-yl)propyl)pyridin-3-yl)phenyl)piperazin-1-yl)pyridin-2-yl)-2-((2S,3S)-2-hydroxypentan-3-yl)-2,4-dihydro-3H-1,2,4-triazol-3-one]: the MIC in assay [2] lay within 0.01 to 0.1 µg/mL (≈ 0.0132 to 0.132 µM). The “Aspergillus fumigatus MIC” value in assay [3] was 0.25 to 1.0 µg/mL.
`CC[C@@H]([C@H](C)O)n1ncn(-c2ccc(N3CCN(c4ccc(-c5ccc(C(F)(F)C(O)(Cn6nccn6)c6cccc(Cl)c6)nc5)cc4)CC3)cc2)c1=O` (stereo partly drawn) [Example 125]: the MIC in assay [2] and in assay [3] was over 8 µg/mL in each case. In assay [1], the pIC50 is 7.04.
